Results as given in article PMC6050476, “Pre-clinical Pharmacokinetic and Metabolomic Analyses of Isorhapontigenin, a Dietary Resveratrol Derivative” (Frontiers in Pharmacology, 2018).

What was measured:
[1] = Plasma pharmacokinetics of isorhapontigenin in Sprague-Dawley rats (LC–MS/MS); type: in vivo; conditions: rat
Method: This in vivo study was conducted with strict adherence to the “Guidelines on the Care and Use of Animals for Scientific Purposes” (Singapore). The pharmacokinetic study design and animal handling procedures were reviewed and approved by the Institutional Animal Care and Use Committee of the National University of Singapore (NUS; R15-1273). All animal experiments were carried out in a specific pathogen-free animal facility (temperature: 22 ± 1°C; humidity: 60–70%) in Comparative Medicine, NUS. Sprague-Dawley rats (male, 9–10 weeks old, weight: 300–350 g) were purchased from InVivos (Singapore). The rats were housed under a 12 h light–dark cycle with free access to food and water. On the day before the pharmacokinetic study, surgery was performed under isoflurane anesthesia and a catheter (polyethylene tube, i.d. = 0.580 mm, o.d. = 0.965 mm, Becton Dickinson, Sparks, MD, United States) was implanted into the right jugular vein. Intravenous ISO administration and blood collection were carried out via this cannula. To prevent cross-contamination and blood clotting, ∼0.3 mL heparin-saline (10 I.U./mL) was flushed through the cannula after intravenous dosing or each blood collection. This reliable pharmacokinetic model has been routinely used in our laboratory to assess the pharmacokinetic profiles of resveratrol and its derivatives ([Yeo et al., 2013a],[b], [2017]; [Choo et al., 2014]; [Chen et al., 2015], [2016b],[c]; [Dai et al., 2018]).
0.3 M HP-β-CD was used to formulate ISO into a solution for intravenous injection while 0.3% CMC (w/v) was applied as a suspending vehicle for oral delivery ([Yeo et al., 2017]). To enhance the stability of ISO, L-ascorbic acid (final concentration: 0.1 mg/mL) was spiked into both intravenous and oral formulations ([Yeo et al., 2017]). The concentrations of ISO in intravenous and oral formulations were 5 and 13.3 mg/mL, respectively.
(§1) Twenty-two rats were divided into four groups. Group 1 (n = 5) received a single bolus intravenous injection of ISO at the dose of 90 μmol/kg (23.2 mg/kg). Serial blood samples were collected before dosing and at 5, 15, 30, 60, 90, 120, 180, 240, 300, 420, 540, and 720 min after intravenous injection. Group 2 (n = 5) received a single oral administration of ISO at the dose of 200 μmol/kg (51.6 mg/kg). Serial blood samples were collected before dosing and at 15, 30, 45, 60, 90, 120, 180, 240, 300, 420, 540, and 720 min after oral gavage. Group 3 (n = 5) received daily oral pre-treatment of oral dosing vehicle (2 mL/kg) while Group 4 (n = 7) received daily oral pre-treatment of ISO at the dose of 100 μmol/kg (25.8 mg/kg) for 1 week. On day 7, ∼8–10 h after the last pre-treatment dose, surgery was performed on rats in Groups 3 and 4 for jugular vein cannulation, and blood samples were also collected from Groups 3 and 4 for metabolomic study. On day 8, the pharmacokinetic study was carried out on these two groups of animals at the dose of 100 μmol/kg (25.8 mg/kg) using the same blood sampling schedule as Group 2.
All blood samples during the pharmacokinetic study were collected in heparinized tubes containing L-ascorbic acid (final concentration = 0.8 mg/mL) to ensure stability of ISO ([Yeo et al., 2017]). The samples were centrifuged at 5000 g for 5 min, and the plasma was harvested and stored at −40°C until LC–MS/MS analysis.
The LC–MS/MS analysis was carried out using an Agilent 1290 Infinity Liquid Chromatography system (Agilent Technologies, Santa Clara, CA, United States), which is coupled to an ABSciex QTRAP® 5500 mass spectrometer (AB Sciex, Framingham, MA, United States) and equipped with a TurboIon Spray probe (AB Sciex). The LC–MS/MS system was controlled by the Analyst 1.5.2 software (AB Sciex) and chromatographic data analysis was performed using the same software. […]

[2] = Stock solution stability of isorhapontigenin; type: physicochemical; conditions: 24 °C, 10 days; stock solution in DMSO
Method: Stock solutions of ISO were prepared by dissolution in DMSO and they were stored at room temperature. The stock solutions were further diluted using blank rat plasma to prepare the calibration standards and QC samples. The stock solution of IS was dissolved in acetonitrile to a concentration of 10 μg/mL. 100 μL IS solution was aliquoted into 1.5-mL polypropylene tubes for storage at −80°C. During sample preparation, this solution was further diluted to the working concentration of 10 ng/mL using acetonitrile containing 0.18 μM of disodium EDTA and stored at 4°C.
The dilution integrity was confirmed using a dilution factor of 20. In the presence of L-ascorbic acid (0.8 mg/mL), ISO appeared to stable in plasma; similarly, addition of EDTA in IS acetonitrile solution (0.18 μM) enhanced the post-preparative stability. The details in accuracy, precision, stability, and matrix effect can be found in Supplementary Tables S1–S3.

[3] = Body weight before and after 1-week ISO intervention; type: in vivo, Sprague-Dawley rats; conditions: 1-week daily oral ISO 100 μmol/kg, normal diet; p = 0.74 and 0.89
Method: as §1
One-week daily oral dosing of ISO decreased plasma levels of some di-aminoacid and N-acetyl amino acids such as glycyl-glycine, N-acetyl-glycine, N-acetyl-glutamine, and N-acetyl-orthinine. […] In this study, the healthy Sprague-Dawley rats were fed with normal diet. […]

[4] = Group 1, single intravenous 90 μmol/kg, HP–β–CD
[5] = Group 2, single oral 200 μmol/kg, suspension
[6] = Group 3, oral 100 μmol/kg after 1-week vehicle pre-treatment, suspension
[7] = Group 4, oral 100 μmol/kg after 1-week daily oral ISO 100 μmol/kg pre-treatment, suspension
[8] = male, Sprague-Dawley, plasma, po, 100 umol/kg, Group 3, oral 100 μmol/kg after 1-week vehicle pre-treatment, suspension
[9] = male, Sprague-Dawley, plasma, po, 100 umol/kg, Group 4, oral 100 μmol/kg after 1-week daily oral ISO 100 μmol/kg pre-treatment, suspension
[10] = male, Sprague-Dawley, plasma, po, 200 umol/kg, Group 2, single oral 200 μmol/kg, suspension
[11] = single intravenous 90 μmol/kg, resveratrol data ref Chen et al., 2016c
[12] = single oral 200 μmol/kg, resveratrol data ref Chen et al., 2016c

For `COc1cc(/C=C/c2cc(O)cc(O)c2)ccc1O` [isorhapontigenin, trans-3,5,4′-trihydroxy-3′-methoxystilbene], the “AUC0→last /Dose” value [1, 4] was 14.2 ± 5.2 kg⋅min/L, the V [1, 4] was 0.893 ± 0.103 L/kg and the “AUC0→last /Dose” value [1, 5] was 4.28 ± 0.94 kg⋅min/L. The “Cmax /Dose” value [1, 5] was 27800 ± 3200 µg/mL, the “AUC0→last /Dose” value [1, 6] was 2.54 ± 0.69 kg⋅min/L and the “Cmax /Dose” value [1, 6] was 29200 ± 2800 µg/mL. For the same compound, the “AUC0→last /Dose” value [1, 7] was 2.97 ± 0.80 kg⋅min/L, the “Cmax /Dose” value [1, 7] was 23900 ± 6200 µg/mL and the clearance ([1]; male, Sprague-Dawley, plasma, 90 umol/kg, Group 1, single intravenous 90 μmol/kg, HP–β–CD) was 76.8 ± 23.7 mL/min/kg. The Tmax ([1]; male, Sprague-Dawley, plasma, 100 umol/kg, Group 3, oral 100 μmol/kg after 1-week vehicle pre-treatment, suspension) was 0.25 h, the Tmax ([1]; male, Sprague-Dawley, plasma, 200 umol/kg, Group 2, single oral 200 μmol/kg, suspension) was 0.25 to 0.75 h and the MRT ([1]; male, Sprague-Dawley, plasma, iv, 90 umol/kg, Group 1, single intravenous 90 μmol/kg, HP–β–CD) was 0.313 h. The MRT [1, 8] was 2.27 h, the bioavailability [1, 8] was 17.9 ± 4.9% and the MRT [1, 9] was 3.03 h. For the same compound, the bioavailability [1, 9] was 20.8 ± 5.6%, the MRT [1, 10] was 3.07 h and the bioavailability [1, 10] was 30.1 ± 6.6%. The “CL relative to resveratrol” value [1, 11] was “comparable to resveratrol”, the “V relative to resveratrol” value [1, 11] was “comparable to resveratrol” and the “average MRT longer than resveratrol” value [1, 11] was about 70%. The “time ISO remained measurable in the systemic circulation after administration” value ([1]; single oral 100 μmol/kg) was “at least 12 h”, the “F relative to resveratrol” value [1, 12] was “two to three folds greater” and the “dose normalized AUC0→t (AUC0→t/Dose) relative to resveratrol” value [1, 12] was “two to three folds greater”. For the same compound, the “dose normalized Cmax (Cmax/Dose) relative to resveratrol” value [1, 12] was “two to three folds greater”, the “Stock solution stability (% remaining)” value [2] was 96.7 ± 3.0 % remaining and the “body weights, vehicle vs ISO treatment group, before and after ISO intervention” value [3] was “remained similar”.
